Measurements from paper PMC8448819, “The Arabidopsis MIK2 receptor elicits immunity by sensing a conserved signature from phytocytokines and microbes” (Nature Communications, 2021).

Tested on: RLK7^ECD-MIK2^TK/rlk7 and RLK7/rlk7 transgenic seedlings
Experiment: Root growth assay, rlk7, RLK7/rlk7 and RLK7^ECD-MIK2^TK/rlk7 seedlings
Assay type: in vivo, Arabidopsis thaliana
Description: The BAK1 (AT4G33430), SERK4 (AT2G13790), BIK1 (AT2G39660), and MIK2 (AT4G08850) coding sequences (CDSs) were amplified by PCR from Col-0 cDNA using the primers containing BamHI at the 5′ end and StuI at the 3′ end. The PCR products were digested by BamHI and StuI, followed by ligation into the pHBT-FLAG or pHBT-HA vector to generate pHBT-35S::BAK1-FLAG, pHBT-35S::SERK4-FLAG, pHBT-35S::BIK1-HA, pHBT-35S::MIK2-HA, and pHBT-35S::MIK2-GFP constructs[24],[41],[62]. MIK2^ECD (residues 1–707) and BAK1^ECD (residues 1–220) were amplified by PCR from Col-0 cDNA and cloned into pFastBac-1 vector with a C-terminal 6× HIS tag[25],[62]. The fusion protein vectors carrying MIK2^ECD or BAK1^ECD were used for insect cell expression. To obtain the binary vector pCAMBIA1300-35S::RLK7, a 2907-bp RLK7 CDS was PCR-amplified from WT cDNA using gene-specific primers with KpnI and SalI at the 5′ and 3′ ends, respectively, followed by KpnI and SalI digestion and ligation into the pCAMBIA1300 vector. To generate the binary vector pCAMBIA1300 carrying the RLK7^ECD-MIK2^TK chimeric receptor gene, an 1824-bp fragment encoding RLK7^ECD was PCR-amplified from WT cDNA using a gene-specific forward primer with KpnI at the 5′ end and a gene-specific reverse primer with 8-bp overlapping sequence from the 5′ end of MIK2^TK, and a 1011-bp fragment encoding MIK2^TK using a gene-specific forward primer with 8-bp overlapping sequence from the 3′ end of RLK7 ^ECD and a gene-specific reverse primer with SalI at the 5′ end. RLK7^ECD was fused with MIK2^TK and inserted into the pUC19 vector using in-fusion recombinant enzymes (Clontech). […]
Cold stratified seeds were surface-sterilized with 70% (v/v) ethanol for 5 min and were sown on ½MS plates with or without peptides at indicated concentrations. Ten-day-old seedlings grown on plates vertically in a growth chamber were photographed, and the root lengths of seedlings were measured using Image J (http://rsb.info.nih.gov/ij/).

Substance: RLASGP(OH)SPRGRGH [PIP1, secreted peptide, ligand of RLK7]
- root growth retardation (RLK7/rlk7 and RLK7^ECD-MIK2^TK/rlk7, 1 µM PIP1): restored the sensitivity to PIP1 treatment exhibiting root growth retardation
- brown roots and darkened root-hypocotyl junctions (RLK7^ECD-MIK2^TK/rlk7): brown roots and darkened root-hypocotyl junctions
- root growth retardation vs RLK7/rlk7 (RLK7^ECD-MIK2^TK/rlk7, 1 µM PIP1): more substantial root growth retardation
